25 compounds from PubChem BioAssay AID248 (DTP/NCI, 2004) can be followed below.

Several values for one entry are separate records, joined by “and”; a condition that tells them apart may be missing. Equal values may be shown once. Toxic doses and inconclusive results are not listed.

The experiment has as its system L1210 leukemia ip in BDF1 mice, survival T/C. In words: NCI In Vivo Anticancer Drug Screen. Data for tumor model L1210 Leukemia (intraperitoneal) in B6D2F1 (BDF1) mice. Particulars: endpoint: mean survival time, higher = longer survival. The gist of the method:
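Read-out is survival time, reported as the treated-group measurement over the vehicle-control measurement.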

[1] abbreviates: dose: 50.0 mg/kg/injection, schedule: Q01DX009 (ip), vehicle: saline with Tween-80.
[2] abbreviates: dose: 100.0 mg/kg/injection, schedule: Q01DX009 (ip), vehicle: saline with Tween-80.
[3] abbreviates: dose: 200.0 mg/kg/injection, schedule: Q01DX009 (ip), vehicle: saline with Tween-80.
Where [4] appears, read: dose: 100.0 mg/kg/injection, schedule: Q04DX003 (ip), vehicle: saline with Tween-80.
Where [5] appears, read: dose: 100.0 mg/kg/injection, schedule: Q01DX001 (ip), vehicle: saline.
Where [6] appears, read: dose: 200.0 mg/kg/injection, schedule: Q01DX001 (ip), vehicle: saline.
Setting [7] is: dose: 400.0 mg/kg/injection, schedule: Q01DX001 (ip), vehicle: saline.
[8] abbreviates: dose: 100.0 mg/kg/injection, schedule: Q04DX003 (ip), vehicle: saline.
Setting [9] is: dose: 200.0 mg/kg/injection, schedule: Q04DX003 (ip), vehicle: saline.
Where [10] appears, read: dose: 400.0 mg/kg/injection, schedule: Q04DX003 (ip), vehicle: saline.
[11] abbreviates: dose: 200.0 mg/kg/injection, schedule: Q04DX003 (ip), vehicle: saline with Tween-80.
The mark [12] stands for this setting: dose: 400.0 mg/kg/injection, schedule: Q04DX003 (ip), vehicle: saline with Tween-80.

For the compound `CC(=O)NNC(=O)C1CCCCN1` (stereo not given), the T/C is 101 % of control (dose: 100.0 mg/kg/injection, schedule: Q01DX001 (ip), vehicle: water); 100 % of control (dose: 200.0 mg/kg/injection, schedule: Q01DX001 (ip), vehicle: water); 103 % of control (dose: 400.0 mg/kg/injection, schedule: Q01DX001 (ip), vehicle: water).
In the case of `COC(=O)c1ccc(OC(=O)Nc2ccc(C)c(NC(=O)Oc3ccc(C(=O)OC)cc3)c2)cc1`, the T/C is, setting by setting: under setting [1], 96 % of control; under setting [2], 96 % of control; under setting [3], 101 % of control.
`COc1ccc2c(c1)C/C(=N\O)C2=O`: the T/C under setting [4] was 102 % of control.
As for `COc1ccc2c(c1C)CCC13CC(C)C(CC21)OC3=O` (stereo not given), the T/C was 102 % of control (dose: 100.0 mg/kg/injection, schedule: Q01DX001 (ip), vehicle: Klucel (hydroxypropylcellulose) (HPC)); 101 % of control (dose: 200.0 mg/kg/injection, schedule: Q01DX001 (ip), vehicle: Klucel (hydroxypropylcellulose) (HPC)); 109 % of control (dose: 400.0 mg/kg/injection, schedule: Q01DX001 (ip), vehicle: Klucel (hydroxypropylcellulose) (HPC)).
Turning to `CC(Br)C(Br)(C(=O)O)c1ccccc1` (stereo not given), the T/C was 91 % of control (dose: 100.0 mg/kg/injection, schedule: Q04DX003 (ip), vehicle: other); 95 % of control (dose: 200.0 mg/kg/injection, schedule: Q04DX003 (ip), vehicle: other); 96 % of control (dose: 400.0 mg/kg/injection, schedule: Q04DX003 (ip), vehicle: other).
Regarding `Cc1ccc([N+](=O)[O-])cc1NC(=O)SCCSC(=O)Nc1cc([N+](=O)[O-])ccc1C`, the T/C reads like this: (dose: 100.0 mg/kg/injection, schedule: Q04DX003 (ip), vehicle: Klucel (hydroxypropylcellulose) (HPC)) 90 % of control; (dose: 200.0 mg/kg/injection, schedule: Q04DX003 (ip), vehicle: Klucel (hydroxypropylcellulose) (HPC)) 92 % of control; (dose: 400.0 mg/kg/injection, schedule: Q04DX003 (ip), vehicle: Klucel (hydroxypropylcellulose) (HPC)) 92 % of control.
For the compound `C=CC[N+](C)(CC=C)CC[N+](C)(CC=C)CC=C`, the T/C was 93 % of control (dose: 50.0 mg/kg/injection, schedule: Q01DX009 (ip), vehicle: water); 95 % of control (dose: 100.0 mg/kg/injection, schedule: Q01DX009 (ip), vehicle: water); 94 % of control (dose: 100.0 mg/kg/injection, schedule: Q04DX003 (ip), vehicle: water); 96 % of control (dose: 200.0 mg/kg/injection, schedule: Q04DX003 (ip), vehicle: water).
As to `CC(C)CCCC(C)C1CCC2C3CC=C4CC(OP(=O)(N5CC5)N5CC5)CCC4(C)C3CCC12C` (stereo not given), the T/C (dose: 50.0 mg/kg/injection, schedule: Q01DX001 (sc), vehicle: steriod suspending solution) was 102 % of control; the T/C (dose: 100.0 mg/kg/injection, schedule: Q01DX001 (sc), vehicle: steriod suspending solution) was 96 % of control; the T/C (dose: 200.0 mg/kg/injection, schedule: Q01DX001 (sc), vehicle: steriod suspending solution) is 94 % of control; the T/C (dose: 400.0 mg/kg/injection, schedule: Q01DX001 (sc), vehicle: steriod suspending solution) was 89 % of control.
In the case of `COc1ccc(CCNC2CC3CCC2(C)C3(C)C)cc1OC` (stereo not given), the T/C by setting is: under setting [5], 100 % of control and 107 % of control; under setting [6], 96 % of control; under setting [7], 96 % of control.
Consider `O=P(N1CCCC1)(N1CC1)N1CC1`, for which the T/C was 94 % of control (dose: 1.3 mg/kg/injection, schedule: Q01DX Z (ip), vehicle: carboxymethylcellulose (CMC)); 109 % of control (dose: 2.0 mg/kg/injection, schedule: Q01DX Z (ip), vehicle: carboxymethylcellulose (CMC)); 114 % of control and 120 % of control (dose: 2.0 mg/kg/injection, schedule: Q01DX Z (ip), vehicle: saline); 109 % of control (dose: 3.0 mg/kg/injection, schedule: Q01DX Z (ip), vehicle: carboxymethylcellulose (CMC)); 160 % of control (dose: 4.5 mg/kg/injection, schedule: Q01DX Z (ip), vehicle: carboxymethylcellulose (CMC)); 118 % of control (dose: 7.5 mg/kg/injection, schedule: Q01DX Z (ip), vehicle: saline).
Take `O=C(/C(=C\c1ccccc1)CBr)c1ccc(Cl)cc1`: the T/C under setting [4] is 119 % of control.
Turning to `Nc1nnnn1CC(Br)CBr` (stereo not given), the T/C is 104 % of control (dose: 100.0 mg/kg/injection, schedule: Q04DX002 (ip), vehicle: saline); 101 % of control (dose: 200.0 mg/kg/injection, schedule: Q04DX002 (ip), vehicle: saline); 90 % of control (dose: 400.0 mg/kg/injection, schedule: Q04DX002 (ip), vehicle: saline).
On to `CC(=O)N(C(C)=O)c1ccc(N=Nc2ccccc2C)cc1C`, for which the T/C was 94 % of control under setting [1]; 86 % of control under setting [2]; 94 % of control under setting [8]; 106 % of control under setting [3]; 94 % of control under setting [9]; 92 % of control under setting [10].
For the compound `CNC(C(=O)O)c1ccccc1` (stereo not given), the T/C reads like this: (dose: 100.0 mg/kg/injection, schedule: Q01DX001 (ip), vehicle: steriod suspending solution) 89 % of control; (dose: 200.0 mg/kg/injection, schedule: Q01DX001 (ip), vehicle: steriod suspending solution) 97 % of control; (dose: 400.0 mg/kg/injection, schedule: Q01DX001 (ip), vehicle: steriod suspending solution) 87 % of control.
Consider `O=C(O)c1cc(Br)cc(I)c1I`, for which the T/C is, setting by setting: (dose: 100.0 mg/kg/injection, schedule: Q04DX002 (ip), vehicle: saline with Tween-80) 105 % of control; (dose: 200.0 mg/kg/injection, schedule: Q04DX002 (ip), vehicle: saline with Tween-80) 105 % of control; (dose: 400.0 mg/kg/injection, schedule: Q04DX002 (ip), vehicle: saline with Tween-80) 110 % of control.
`O=c1[nH]n(-c2ccccc2)c(=O)cc1Cl`: the T/C runs as follows: under setting [1], 97 % of control; under setting [2], 89 % of control; under setting [3], 86 % of control.
Consider `Cc1ccc([N+](=O)[O-])cc1NC(=O)NNC(=O)CNC(=O)Nc1ccc(F)cc1`, for which the T/C (dose: 25.0 mg/kg/injection, schedule: Q01DX009 (ip), vehicle: saline with Tween-80) was 94 % of control; the T/C under setting [1] was 86 % of control; the T/C under setting [2] is 100 % of control.
Regarding `O=C(O)c1ccc(N=Nc2nc3[nH]c(=O)[nH]c(=O)c3[nH]2)cc1`, the T/C is 97 % of control (dose: 50.0 mg/kg/injection, schedule: Q01DX009 (ip), vehicle: Klucel (hydroxypropylcellulose) (HPC)); 97 % of control (dose: 100.0 mg/kg/injection, schedule: Q01DX009 (ip), vehicle: Klucel (hydroxypropylcellulose) (HPC)); 87 % of control (dose: 200.0 mg/kg/injection, schedule: Q01DX009 (ip), vehicle: Klucel (hydroxypropylcellulose) (HPC)).
For the compound `C[N+](C)(C)Cc1c(C(O)(c2ccccc2)c2ccccc2)ccc2ccccc12`, the T/C is, setting by setting: (dose: 50.0 mg/kg/injection, schedule: Q01DX001 (ip), vehicle: carboxymethylcellulose (CMC)) 94 % of control; (dose: 100.0 mg/kg/injection, schedule: Q01DX001 (ip), vehicle: carboxymethylcellulose (CMC)) 96 % of control.
With `Cc1c[n+](Cc2ccccc2)cc(C)n1`, the T/C by setting is: (dose: 75.0 mg/kg/injection, schedule: Q01DX001 (ip), vehicle: saline) 105 % of control; (dose: 150.0 mg/kg/injection, schedule: Q01DX001 (ip), vehicle: saline) 98 % of control.
`O=C1c2cccc3cc([N+](=O)[O-])cc(c23)C(=O)N1O`: the T/C reads like this: under setting [5], 101 % of control; under setting [6], 97 % of control; under setting [7], 107 % of control.
Turning to `CCCC/C(=N/Nc1ccc([N+](=O)[O-])cc1[N+](=O)[O-])c1ccc(Cl)cc1`, the T/C under setting [5] is 98 % of control, the T/C under setting [6] was 88 % of control and the T/C under setting [7] is 102 % of control.
For the compound `O=CNC(O)C(Cl)(Cl)Cl` (stereo not given), the T/C reads like this: (dose: 100.0 mg/kg/injection, schedule: Q01DX009 (ip), vehicle: saline) 98 % of control; under setting [8], 109 % of control; (dose: 200.0 mg/kg/injection, schedule: Q01DX009 (ip), vehicle: saline) 89 % of control; under setting [9], 95 % of control; (dose: 400.0 mg/kg/injection, schedule: Q01DX009 (ip), vehicle: saline) 89 % of control; under setting [10], 95 % of control.
Consider `CCOC(=O)CC(=O)c1ccccc1SC`, for which the T/C is 102 % of control under setting [4], 100 % of control under setting [11] and 91 % of control under setting [12].
For `CC(C)CCC(C)O[Si](C)c1ccccc1` (stereo not given), the T/C runs as follows: under setting [4], 97 % of control; under setting [11], 99 % of control; under setting [12], 101 % of control.
